Experimental data: ChEMBL document CHEMBL1155353, “Isatin derivatives, a novel class of transthyretin fibrillogenesis inhibitors” (Bioorg Med Chem Lett, 2009)
Activity calls are given as the source filed them. The calls are words filed in the database; no cut-off is given here.

How the values were obtained:
Transthyretin [1] = biological target: T1, Transthyretin (Homo sapiens, UniProt P02766); assay: Displacement of [125I]thyroxin from TTR
Transthyretin [2] = biological target: T1, Transthyretin; assay: Inhibition of TTR mediated fibrillogenesis assessed as acid-induced protein aggregation turbidity after 1.5 hrs by turbidimetric assay
Transthyretin [3] = biological target: T1, Transthyretin; assay: Inhibition of TTR mediated fibrillogenesis assessed as acid-induced protein aggregation turbidity after 1.5 hrs by turbidimetric assay relative to control; set-up: concentration or dose not given beside the values
Transthyretin [4] = biological target: T1, Transthyretin; assay: Inhibition of TTR mediated fibrillogenesis assessed as acid-induced protein aggregation turbidity at […] after 1.5 hrs by turbidimetric assay relative to control; set-up: scale not given: the % may be the effect or the level left
Transthyretin [5] = biological target: T1, Transthyretin; assay: Binding affinity to TTR at 40 uM by isothermal titration calorimetry

Cc1ccc2c(c1)/C(=N/c1ccc(I)cc1)C(=O)N2
Activity (Transthyretin [1]): inactive
IC50 (Transthyretin [2]): > 50 µM
Activity (Transthyretin [3]): inactive
Activity (Transthyretin [4]): 7%

O=C1Nc2ccccc2/C1=N/c1ccc([N+](=O)[O-])cc1
Activity (Transthyretin [1]): inactive
IC50 (Transthyretin [2]): 2.8 µM
Activity (Transthyretin [3]): 90%
Activity (Transthyretin [5]): inactive

CN1C(=O)/C(=N\c2ccc(I)cc2)c2ccccc21
Activity (Transthyretin [1]): inactive
IC50 (Transthyretin [2]): > 50 µM
Activity (Transthyretin [3]): 0%

Cc1ccc(/N=C2\C(=O)Nc3ccccc32)cc1
Activity (Transthyretin [1]): inactive
IC50 (Transthyretin [2]): > 50 µM
Activity (Transthyretin [4]): 14%

N[C@@H](Cc1cc(I)c(Oc2cc(I)c(O)c(I)c2)c(I)c1)C(=O)O
Activity (Transthyretin [1]): inactive
Activity (Transthyretin [3]): 95%

O=C1Nc2ccccc2C1=O [ISATIN]
Activity (Transthyretin [1]): inactive
IC50 (Transthyretin [2]): > 50 µM
Activity (Transthyretin [4]): 24%

CN1C(=O)/C(=N\c2ccc([N+](=O)[O-])cc2)c2ccccc21
Activity (Transthyretin [1]): inactive
IC50 (Transthyretin [2]): 6.3 µM
Activity (Transthyretin [3]): 86%

COc1ccc(/N=C2\C(=O)N(C)c3ccccc32)cc1
Activity (Transthyretin [1]): inactive
IC50 (Transthyretin [2]): 7.7 µM
Activity (Transthyretin [3]): 81%

CN1C(=O)/C(=N\c2ccccc2)c2ccccc21
Activity (Transthyretin [1]): inactive
IC50 (Transthyretin [2]): 11 µM
Activity (Transthyretin [3]): 77%

O=C1Nc2ccccc2/C1=N/c1ccc(I)cc1
Activity (Transthyretin [1]): inactive
IC50 (Transthyretin [2]): > 50 µM
Activity (Transthyretin [3]): 0%

COc1ccc(/N=C2/C(=O)Nc3ccccc32)cc1
IC50 (Transthyretin [2]): 8.1 µM

O=C1Nc2ccc(I)cc2/C1=N/c1ccccc1
Activity (Transthyretin [1]): inactive
IC50 (Transthyretin [2]): > 50 µM
Activity (Transthyretin [3]): 1%

COc1ccc(/N=C2\C(=O)Nc3ccc(C)cc32)cc1
Activity (Transthyretin [1]): inactive
IC50 (Transthyretin [2]): > 50 µM
Activity (Transthyretin [3]): 32%

O=C1Nc2ccc(Br)cc2/C1=N/c1ccc(I)cc1
Activity (Transthyretin [1]): inactive
IC50 (Transthyretin [2]): > 50 µM
Activity (Transthyretin [3]): 16%

O=C1Nc2ccc(I)cc2/C1=N/c1ccc(I)cc1
Activity (Transthyretin [1]): inactive
IC50 (Transthyretin [2]): > 50 µM
Activity (Transthyretin [3]): 23%

O=C1Nc2ccc([N+](=O)[O-])cc2/C1=N/c1ccc(I)cc1
Activity (Transthyretin [1]): inactive
IC50 (Transthyretin [2]): > 50 µM
Activity (Transthyretin [3]): 7%
Activity (Transthyretin [4]): 7%

COc1ccc(/N=C2\C(=O)Nc3ccc(Br)cc32)cc1
Activity (Transthyretin [1]): inactive
IC50 (Transthyretin [2]): > 50 µM
Activity (Transthyretin [3]): 48%

COc1ccc(/N=C2\C(=O)Nc3ccccc32)cc1
Activity (Transthyretin [1]): inactive
Activity (Transthyretin [3]): 100%

CN1C(=O)C(=O)c2ccccc21
Activity (Transthyretin [1]): inactive
IC50 (Transthyretin [2]): 6.3 µM
Activity (Transthyretin [3]): 100%

Cc1ccc(/N=C2\C(=O)N(C)c3ccccc32)cc1
Activity (Transthyretin [1]): inactive
IC50 (Transthyretin [2]): 6.3 µM
Activity (Transthyretin [3]): 8.6%

COc1ccc(/N=C2\C(=O)Nc3ccc(I)cc32)cc1
Activity (Transthyretin [1]): inactive
IC50 (Transthyretin [2]): > 50 µM
Activity (Transthyretin [3]): 42%

Oc1c(I)cc(I)cc1I [TRIIODOPHENOL]
Activity (Transthyretin [1]): inactive
IC50 (Transthyretin [2]): 3.2 µM
Activity (Transthyretin [3]): 80%

COc1ccc(/N=C2\C(=O)Nc3ccc([N+](=O)[O-])cc32)cc1
Activity (Transthyretin [1]): inactive
IC50 (Transthyretin [2]): > 50 µM
Activity (Transthyretin [3]): 24%
